Test results from ChEMBL document CHEMBL4130605, “7α,20-Epoxy-ent-kaurane Diterpenoids from the Aerial Parts of Isodon pharicus” (J Nat Prod, 2018).

What was measured:
Assay type in all cases: functional, cell-based
SW480 = experiment: Cytotoxicity against human SW480 cells after 48 hrs by MTS assay; conditions: SW480, 48 h
MCF7 = experiment: Cytotoxicity against human MCF7 cells after 48 hrs by MTS assay; conditions: MCF7, 48 h
HL-60 = experiment: Cytotoxicity against human HL60 cells after 48 hrs by MTS assay; conditions: HL-60, 48 h
A549 = experiment: Cytotoxicity against human A549 cells after 48 hrs by MTS assay; conditions: A549, 48 h
SMMC-7721 = experiment: Cytotoxicity against human SMMC7721 cells after 48 hrs by MTS assay; conditions: SMMC-7721, 48 h

SMILES | IC50 (SW480) | IC50 (MCF7) | IC50 (HL-60) | IC50 (A549) | IC50 (SMMC-7721)
COC[C@H]1C(=O)[C@]23C[C@H]1CC[C@H]2[C@@]12CO[C@@]3(O)[C@@H](O)[C@@H]1C(C)(C)CC[C@@H]2OC(C)=O (relative stereo) | 1.23 µM | 3.2 µM | 3.77 µM | 6.8 µM | 3.99 µM
COC[C@H]1C(=O)[C@]23C[C@H]1CC[C@H]2[C@@]12CO[C@@]3(O)[C@@H](O)[C@@H]1[C@](C)(COC(C)=O)CC[C@@H]2O (mixture of isomers) | 9.68 µM | 16 µM | 18 µM | 14.5 µM | 12.3 µM
COC[C@H]1C(=O)[C@]23[C@H](O)[C@H]1CC[C@H]2[C@@]12CO[C@@]3(O)[C@@H](O)[C@@H]1[C@](C)(CO)CC[C@@H]2O (relative stereo) | > 10 µM | > 10 µM | > 10 µM | > 10 µM | > 10 µM
C=C1C(=O)[C@]23C[C@H]1C[C@H](O)[C@H]2[C@@]12CO[C@@]3(O)C[C@@H]1C(C)(C)CC[C@@H]2O [RABDOCOETSIN C] | 1.8 µM | 5.29 µM | 4.24 µM | 9.62 µM | 9.04 µM
C=C1C(=O)[C@]23[C@H](O)[C@H]1CC[C@H]2[C@]12CC[C@@H](O)[C@@](C)(CO)[C@H]1[C@H](O)[C@]3(O)OC2 | > 10 µM | > 10 µM | > 10 µM | > 10 µM | > 10 µM
C=C1C(=O)[C@]23C[C@H]1CC[C@H]2[C@@]12CO[C@@]3(O)[C@@H](O)[C@@H]1[C@](C)(COC(C)=O)CC[C@@H]2OC(C)=O | 1.01 µM | 2.96 µM | 2.43 µM | 3.61 µM | 2.03 µM
COC[C@H]1C(=O)[C@]23[C@H](O)[C@H]1[C@@H](O)C[C@H]2[C@]12CCC[C@@](C)(COC(C)=O)[C@H]1[C@H](O)[C@]3(O)OC2 (relative stereo) | > 10 µM | > 10 µM | > 10 µM | > 10 µM | > 10 µM
C=C1C(=O)[C@]23[C@H](O)[C@H]1CC[C@H]2[C@@]12CO[C@@]3(O)[C@@H](O)[C@@H]1[C@](C)(COC(C)=O)CC[C@@H]2O | > 10 µM | > 10 µM | > 10 µM | > 10 µM | > 10 µM
COC[C@@H]1C(=O)[C@]23C[C@H]1CC[C@H]2[C@@]12CO[C@@]3(O)[C@@H](O)[C@@H]1C(C)(C)CC[C@@H]2OC(C)=O (single isomer, unassigned) | > 10 µM | > 10 µM | > 10 µM | > 10 µM | > 10 µM
C=C1[C@@H](O)[C@]23[C@H](O)[C@H]1CC[C@H]2[C@@]12CO[C@@]3(O)[C@@H](O)[C@@H]1[C@](C)(COC(C)=O)CC[C@@H]2O | > 10 µM | > 10 µM | > 10 µM | > 10 µM | > 10 µM
C=C1C(=O)[C@]23[C@H](O)[C@H]1[C@@H](O)C[C@H]2[C@]12CCC[C@@](C)(CO)[C@H]1[C@H](O)[C@]3(O)OC2 | > 10 µM | > 10 µM | > 10 µM | > 10 µM | > 10 µM
C=C1[C@@H]2C[C@H](O)[C@H]3[C@@]45CO[C@@](O)([C@@H](O)[C@@H]4C(C)(C)CC[C@@H]5OC(C)=O)[C@]3(C2)[C@@H]1O | > 10 µM | > 10 µM | > 10 µM | > 10 µM | > 10 µM
C=C1[C@@H](O)[C@]23[C@H](O)[C@H]1C[C@H](OC(C)=O)[C@H]2[C@]12CCCC(C)(C)[C@H]1[C@H](O)[C@]3(O)O[C@@H]2O (relative stereo) | > 10 µM | > 10 µM | > 10 µM | > 10 µM | > 10 µM
C=C1[C@H]2C[C@@]3([C@@H]1O)[C@@H](C[C@@H]2O)[C@]12CCC[C@@](C)(COC(C)=O)[C@H]1[C@H](O)[C@]3(O)OC2 | > 10 µM | > 10 µM | > 10 µM | > 10 µM | > 10 µM
C=C1C(=O)[C@]23C[C@H]1C[C@@H](OC(C)=O)[C@H]2[C@@]12CO[C@@]3(O)[C@@H](O)[C@@H]1C(C)(C)CC[C@@H]2O | 2.34 µM | 14.1 µM | 5.36 µM | 12.1 µM | 12.7 µM
C=C1[C@@H](O)[C@]23[C@H](O)[C@H]1C[C@H](OC(C)=O)[C@H]2[C@]12CCCC(C)(C)[C@H]1[C@H](O)[C@]3(O)O[C@@H]2OCC (relative stereo) | > 10 µM | > 10 µM | > 10 µM | > 10 µM | > 10 µM
COC[C@@H]1C(=O)[C@]23[C@H](O)[C@H]1[C@@H](O)C[C@H]2[C@]12CCC[C@@](C)(CO)[C@H]1[C@H](O)[C@]3(O)OC2 | > 10 µM | > 10 µM | > 10 µM | > 10 µM | > 10 µM
C=C1[C@@H](O)[C@]23[C@H](O)[C@H]1C[C@H](OC(C)=O)[C@H]2[C@]12CCC[C@@](C)(COC(C)=O)[C@H]1[C@H](OC(C)=O)[C@]3(O)O[C@@H]2O (relative stereo) | 3.17 µM | 3.86 µM | 5.53 µM | 6.23 µM | 2.69 µM
C=C1C(=O)[C@]23[C@H](O)[C@H]1CC[C@H]2[C@]12CC[C@@H](OC(C)=O)[C@@](C)(CO)[C@H]1[C@H](O)[C@]3(O)OC2 | > 10 µM | > 10 µM | > 10 µM | > 10 µM | > 10 µM
C=C1C(=O)[C@]23[C@H](O)[C@H]1CC[C@H]2[C@@]12CO[C@@]3(O)[C@@H](O)[C@@H]1[C@](C)(CO)CC[C@@H]2O | > 10 µM | > 10 µM | > 10 µM | > 10 µM | > 10 µM
C=C1C(=O)[C@]23[C@H](O)[C@H]1CC[C@H]2[C@]12CC[C@@H](O)[C@@](C)(COC(C)=O)[C@H]1[C@H](O)[C@]3(O)OC2 | > 10 µM | > 10 µM | > 10 µM | > 10 µM | > 10 µM
COC[C@@H]1C(=O)[C@]23[C@H](O)[C@H]1CC[C@H]2[C@@]12CO[C@@]3(O)[C@@H](O)[C@@H]1[C@](C)(CO)CC[C@@H]2O (relative stereo) | > 10 µM | > 10 µM | > 10 µM | > 10 µM | > 10 µM
C=C1C(=O)[C@]23C[C@H]1CC[C@H]2[C@]12CC[C@@H](O)[C@@](C)(COC(C)=O)[C@H]1[C@H](O)[C@]3(O)OC2 | 3.74 µM | 14.7 µM | 12.5 µM | 16 µM | 14.2 µM
COC[C@H]1C(=O)[C@]23C[C@@H]1CC[C@H]2[C@@]12CO[C@]3(O)[C@@H](O)[C@@H]1C(C)(C)CC[C@@H]2O | 7.83 µM | 13.8 µM | 17.2 µM | 14.3 µM | 14.6 µM
C=C1[C@@H](O)[C@]23[C@H](O)[C@H]1C[C@H](OC(C)=O)[C@H]2[C@]12CCC[C@@](C)(COC(C)=O)[C@H]1[C@H](O)[C@]3(O)O[C@@H]2O (relative stereo) | > 10 µM | > 10 µM | > 10 µM | > 10 µM | > 10 µM
CC(=O)O[C@H]1C(=O)[C@@]2(C)[C@H]([C@H](OC(=O)c3ccccc3)[C@]3(O)C[C@H](OC(=O)[C@H](O)[C@@H](NC(=O)c4ccccc4)c4ccccc4)C(C)=C1C3(C)C)[C@]1(OC(C)=O)CO[C@@H]1C[C@@H]2O [PACLITAXEL] | < 0.008 µM | < 0.008 µM | < 0.008 µM | < 0.008 µM | < 0.008 µM
